The values below come from patent publication US8163755B2, “Hexahydrooxazinopterine compounds” (Takeda Pharmaceutical Company Limited, priority 2009, dated 2012).

The target of this assay is T1, human mTOR (Homo sapiens, UniProt P42345).
T1 construct: purchased Invitrogen
Put plainly: Inhibition of mTOR (Example A, LanthaScreen TR-FRET, GFP-4E-BP1 substrate). The following applies: inhibition of human mTOR in the assay of Example A. The class given is biochemical. As for the experimental part: Example A Inhibition of mTOR
Purified mTOR are purchased from Invitrogen. mTOR activity was determined using Invitrogen's LanthaScreen system. The inhibitory properties of compounds relative to mTOR may be determined using a black 384-well-plate format in the following buffer 50 mM Hepes, 10 mM NaCl, 10 mM MgCl2, 0.2 mM EDTA, 0.01% Brij35, 2 mM DTT at pH7.3. The test compound is prepared in DMSO using 2 fold serial dilutions for 11 data points which are added to the buffer so that each dilution contains 3% DMSO.
An Assay for mTOR Inhibition is as Follows:
Combine in each well 2 μl of 1.2 μM GFP-4E-BP1 (Invitrogen) and 150 μM ATP (in buffer), 2 μl of diluted test compound (3% DMSO in buffer), and 2 μl of 6 nM mTor in buffer. The reaction mixture is then incubated at room temperature for 30 min, and quenched by adding 40 mM ETDA with 4 nM Tb-anti-p4E-BP1 [pThr46] antibody in TR-FRET dilution buffer (Invitrogen). The plate is kept at room temperature for 1 hour and then read using PheraStar (BMG labtech) LanthaScreen mode.
pIC50 values, the negative of the log of the IC50, are calculated by non-linear curve fitting of the compound concentrations and percent of inhibition to the standard pIC50 equation.
A general note: TR-FRET usually uses a lanthanide donor and a delayed reading to cut background.

SMILES strings stand for the structures. Where only a bound is given, the exact number is not on record here.

As for `C[C@@]12COCCN1c1nc(-c3ccc(NC(=O)NC4CC4)cc3)ncc1N(CC1CC1)C2=O` [Example 9, (S)-1-cyclopropyl-3-(4-(5-(cyclopropylmethyl)-6a-methyl-6-oxo-5,6,6a,7,9,10-hexahydro-[1,4]oxazino[3,4-h]pteridin-2-yl)phenyl)urea], the IC50 – broadly, the concentration that inhibits the measured activity by half – was < 31.6 nM.
